# Experimental data as given in ChEMBL document CHEMBL5442175, “EUbOPEN Chemogenomics Library - PDSP Secondary Binding” (2024).
# Where a name gives a salt, the structure may show the parent alone.
# Assays:
# [1] = target: T1, Alpha-1D adrenergic receptor (Homo sapiens, UniProt P25100); experiment: (§1) PDSP Secondary Binding target: ADRA1D - Compounds are tested at 10 uM concentration, plate are incubated at room temperature in the dark for 90 minutes. Reaction are stopped by vacuum filtration onto 0.3% polyethyleneimine soaked filter mats using Filtermate harvester. Scintillation cocktail is then melted onto microwave-dried filters on a hot plate and the radio activity is counted in Microbia counter.
# T1 sequence (P25100 whole entry): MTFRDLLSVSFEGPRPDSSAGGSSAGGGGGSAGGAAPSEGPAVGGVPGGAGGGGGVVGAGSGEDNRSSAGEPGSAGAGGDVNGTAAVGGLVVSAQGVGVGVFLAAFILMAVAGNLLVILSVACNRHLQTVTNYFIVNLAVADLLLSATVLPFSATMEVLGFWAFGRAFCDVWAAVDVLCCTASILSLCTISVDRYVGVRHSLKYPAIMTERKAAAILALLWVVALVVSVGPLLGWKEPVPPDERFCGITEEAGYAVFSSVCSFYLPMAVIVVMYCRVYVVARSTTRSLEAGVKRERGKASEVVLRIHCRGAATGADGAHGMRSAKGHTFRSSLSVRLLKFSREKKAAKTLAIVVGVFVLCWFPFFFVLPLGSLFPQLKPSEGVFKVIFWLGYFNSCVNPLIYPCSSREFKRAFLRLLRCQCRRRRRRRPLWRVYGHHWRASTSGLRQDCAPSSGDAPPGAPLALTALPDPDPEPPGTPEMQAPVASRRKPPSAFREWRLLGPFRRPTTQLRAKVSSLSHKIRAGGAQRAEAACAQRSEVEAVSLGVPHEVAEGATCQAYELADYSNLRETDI
# [2] = target: T2, Alpha-1B adrenergic receptor (Homo sapiens, UniProt P35368); experiment: as §1, with “ADRA1B” for “ADRA1D”
# T2 sequence (P35368 whole entry): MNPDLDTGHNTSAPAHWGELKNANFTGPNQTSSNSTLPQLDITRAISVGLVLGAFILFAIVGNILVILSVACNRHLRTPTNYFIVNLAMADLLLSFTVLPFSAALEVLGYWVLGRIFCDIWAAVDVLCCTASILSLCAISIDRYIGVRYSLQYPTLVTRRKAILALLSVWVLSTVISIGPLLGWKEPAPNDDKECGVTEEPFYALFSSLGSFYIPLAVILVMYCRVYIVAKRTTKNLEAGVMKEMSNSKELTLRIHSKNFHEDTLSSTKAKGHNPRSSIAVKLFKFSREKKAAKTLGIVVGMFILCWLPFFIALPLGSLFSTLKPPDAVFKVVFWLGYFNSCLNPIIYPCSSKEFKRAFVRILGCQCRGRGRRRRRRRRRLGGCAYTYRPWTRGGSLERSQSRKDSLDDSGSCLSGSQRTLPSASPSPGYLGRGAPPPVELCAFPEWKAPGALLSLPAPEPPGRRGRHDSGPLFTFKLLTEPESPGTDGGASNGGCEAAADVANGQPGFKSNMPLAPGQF
# [3] = target: 5-hydroxytryptamine receptor 6 (Homo sapiens, UniProt P50406); experiment: as §1, with “HTR6” for “ADRA1D”
# [4] = target: 5-hydroxytryptamine receptor 5A (Homo sapiens, UniProt P47898); experiment: as §1, with “HTR5A” for “ADRA1D”
# [5] = target: T3, Alpha-2A adrenergic receptor (Homo sapiens, UniProt P08913); experiment: as §1, with “ADRA2A” for “ADRA1D”
# T3 sequence (P08913 whole entry): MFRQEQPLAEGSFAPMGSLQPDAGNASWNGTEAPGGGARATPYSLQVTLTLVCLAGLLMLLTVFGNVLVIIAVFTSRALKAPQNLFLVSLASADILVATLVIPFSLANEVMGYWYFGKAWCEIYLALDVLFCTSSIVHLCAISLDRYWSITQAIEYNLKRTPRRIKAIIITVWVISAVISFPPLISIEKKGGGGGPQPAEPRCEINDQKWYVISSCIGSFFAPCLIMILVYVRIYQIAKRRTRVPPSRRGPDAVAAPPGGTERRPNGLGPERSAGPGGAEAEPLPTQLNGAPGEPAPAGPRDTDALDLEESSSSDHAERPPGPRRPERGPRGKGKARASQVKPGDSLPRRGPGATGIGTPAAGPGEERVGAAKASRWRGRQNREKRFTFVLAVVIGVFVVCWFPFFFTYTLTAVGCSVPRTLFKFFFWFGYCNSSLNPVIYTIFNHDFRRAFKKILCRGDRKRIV
# [6] = target: 5-hydroxytryptamine receptor 1B (Homo sapiens, UniProt P28222); experiment: as §1, with “HTR1B” for “ADRA1D”
# D(3) dopamine receptor = D(3) dopamine receptor (Homo sapiens, UniProt P35462); experiment: as §1, with “DRD3” for “ADRA1D”
# [7] = target: T4, 5-hydroxytryptamine receptor 2C (Homo sapiens, UniProt P28335); experiment: as §1, with “HTR2C” for “ADRA1D”
# T4 sequence (P28335 whole entry): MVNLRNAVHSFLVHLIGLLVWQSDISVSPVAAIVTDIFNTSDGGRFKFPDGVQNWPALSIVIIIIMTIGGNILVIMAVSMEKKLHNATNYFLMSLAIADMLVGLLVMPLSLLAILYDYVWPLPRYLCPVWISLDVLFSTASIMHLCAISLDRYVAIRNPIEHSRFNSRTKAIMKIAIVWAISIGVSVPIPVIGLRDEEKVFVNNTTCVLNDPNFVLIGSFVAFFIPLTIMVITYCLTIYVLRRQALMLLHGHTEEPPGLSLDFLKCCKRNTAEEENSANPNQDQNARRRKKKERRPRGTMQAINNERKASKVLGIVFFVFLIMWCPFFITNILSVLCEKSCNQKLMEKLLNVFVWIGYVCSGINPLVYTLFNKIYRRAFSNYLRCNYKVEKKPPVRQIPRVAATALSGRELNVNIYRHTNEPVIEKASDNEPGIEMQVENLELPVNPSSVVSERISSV
# Sequence of 5-hydroxytryptamine receptor 1B (P28222 whole entry): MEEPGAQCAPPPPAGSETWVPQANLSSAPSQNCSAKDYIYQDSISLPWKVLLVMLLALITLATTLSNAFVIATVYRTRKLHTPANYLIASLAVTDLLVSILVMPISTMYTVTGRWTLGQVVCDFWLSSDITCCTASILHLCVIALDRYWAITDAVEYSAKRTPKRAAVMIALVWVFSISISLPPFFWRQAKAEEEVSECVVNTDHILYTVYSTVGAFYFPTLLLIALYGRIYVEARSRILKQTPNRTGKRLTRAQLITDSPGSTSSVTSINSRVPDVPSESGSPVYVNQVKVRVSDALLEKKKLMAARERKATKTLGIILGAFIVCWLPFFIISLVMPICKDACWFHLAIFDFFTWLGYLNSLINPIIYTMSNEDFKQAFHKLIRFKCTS
# Sequence of 5-hydroxytryptamine receptor 5A (P47898 whole entry): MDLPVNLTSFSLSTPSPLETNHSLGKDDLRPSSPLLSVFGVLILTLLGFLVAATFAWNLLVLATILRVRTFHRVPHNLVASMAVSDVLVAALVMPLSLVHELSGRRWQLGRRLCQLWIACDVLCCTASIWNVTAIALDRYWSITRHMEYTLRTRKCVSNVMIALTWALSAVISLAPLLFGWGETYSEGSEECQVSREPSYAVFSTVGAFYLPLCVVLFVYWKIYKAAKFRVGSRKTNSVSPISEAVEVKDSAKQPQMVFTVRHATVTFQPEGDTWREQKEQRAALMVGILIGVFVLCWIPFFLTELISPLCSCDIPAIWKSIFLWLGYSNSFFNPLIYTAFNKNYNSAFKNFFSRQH
# Sequence of 5-hydroxytryptamine receptor 6 (P50406 whole entry): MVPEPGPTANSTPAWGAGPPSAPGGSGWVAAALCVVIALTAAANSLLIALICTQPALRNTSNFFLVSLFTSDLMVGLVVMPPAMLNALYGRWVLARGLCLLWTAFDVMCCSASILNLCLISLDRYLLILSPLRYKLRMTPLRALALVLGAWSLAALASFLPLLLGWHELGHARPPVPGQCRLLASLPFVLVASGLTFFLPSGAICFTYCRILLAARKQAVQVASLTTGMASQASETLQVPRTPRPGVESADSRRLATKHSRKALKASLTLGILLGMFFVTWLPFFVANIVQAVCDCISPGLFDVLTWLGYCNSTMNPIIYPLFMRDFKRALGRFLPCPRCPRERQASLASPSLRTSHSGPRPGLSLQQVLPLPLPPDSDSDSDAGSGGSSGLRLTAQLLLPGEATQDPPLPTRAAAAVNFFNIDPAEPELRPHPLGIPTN
# Sequence of D(3) dopamine receptor (P35462 whole entry): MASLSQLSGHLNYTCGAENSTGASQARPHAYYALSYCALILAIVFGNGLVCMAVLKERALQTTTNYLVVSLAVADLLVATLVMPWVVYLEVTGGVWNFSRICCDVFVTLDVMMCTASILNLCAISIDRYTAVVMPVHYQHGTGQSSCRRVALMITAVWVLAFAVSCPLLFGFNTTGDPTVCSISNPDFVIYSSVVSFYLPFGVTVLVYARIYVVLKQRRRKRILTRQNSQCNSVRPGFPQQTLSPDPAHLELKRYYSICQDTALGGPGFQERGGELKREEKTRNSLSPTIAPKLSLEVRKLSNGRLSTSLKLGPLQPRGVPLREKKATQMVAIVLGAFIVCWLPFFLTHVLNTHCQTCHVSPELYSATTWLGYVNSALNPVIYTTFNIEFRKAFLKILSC
Compound,Ki [1] [µM],Ki [2] [µM],Ki [3] [µM],Ki [4] [µM],Ki [5] [µM],Ki [6] [µM],Ki (D(3) dopamine receptor) [µM],Ki [7] [µM]
CN1CCN(c2ccc(Nc3c4ccccc4nc4ccccc34)cc2)CC1,1.75,2.72,0.378,–,–,–,–,–
Cc1nc2sccn2c(=O)c1CCN1CCC(=C(c2ccc(F)cc2)c2ccc(F)cc2)CC1 [RITANSERIN],–,0.598,0.287,0.102,0.367,0.281,0.0355,0.00409
S=C(NCCCc1c[nH]cn1)NCCCN(Cc1ccc(Cl)c(Cl)c1)c1ccc(Br)cn1,1.7,2.03,1.33,1.55,0.178,1.04,0.641,0.251
CN1C[C@H](C(=O)N[C@]2(C)O[C@@]3(O)[C@@H]4CCCN4C(=O)[C@H](Cc4ccccc4)N3C2=O)C[C@@H]2c3cccc4[nH]cc(c34)C[C@H]21 [DIHYDROERGOTAMINE MESYLATE],–,0.119,0.225,0.0313,–,0.108,0.034,0.214
COc1cc(-n2cnc3cc(-c4ccc(Cl)cc4)sc3c2=O)ccc1OCCN1CCCC1,6.05,–,–,0.557,2.94,–,0.768,0.893
Cc1c(P(=S)(c2ccccc2)c2ccccc2)n2ccccc2[n+]1C/C=C/c1ccccc1,–,–,–,–,0.568,–,–,–
N#Cc1ccc2[nH]cc(CCCCN3CCN(c4ccc5oc(C(N)=O)cc5c4)CC3)c2c1 [VILAZODONE HYDROCHLORIDE],0.716,2.9,0.96,–,2.49,1.24,0.133,–
Cc1ccc2c(c1)c1c(n2CCc2ccc(C)nc2)CCN(C)C1 [LATREPIRDINE],0.767,1.31,0.144,0.107,0.729,–,0.461,–
CN1CCCC(n2nc(Cc3ccc(Cl)cc3)c3ccccc3c2=O)CC1 (centres undefined) [AZELASTINE HYDROCHLORIDE],0.333,3.64,2.09,–,1.45,4.23,0.636,–
CCc1ccc(OCc2ccccc2C(=O)Nc2ccc3nc(C)cc(N)c3c2)cc1,2.08,3.54,–,2.45,–,–,–,0.328
OCc1cc(C(O)CNCCCCCCOCCCCc2ccccc2)ccc1O (centres undefined) [SALMETEROL],0.963,–,–,–,> 10,1.99,1.26,4.09
CN(C)C(=O)N[C@H]1CC[C@H](CCN2CCN(c3cccc(Cl)c3Cl)CC2)CC1 [CARIPRAZINE HYDROCHLORIDE],0.323,1.97,1.3,3.29,1.74,0.129,–,1.25
O=S1(=O)c2cccc3cccc(c23)N1CCCN1CCN(c2ccc(F)cc2)CC1 [FANANSERIN],–,0.847,5.11,6.73,2.02,–,1.02,–
Cc1nc(-c2ccc(-c3ccc(C(=O)N4CCc5cc6c(cc54)C4(CCN(C)CC4)CO6)cc3)c(C)c2)no1 [SB-224289],2.11,–,–,–,2.43,–,–,0.859
COc1ccc(NC(=O)c2ccc(-c3ccc(-c4noc(C)n4)cc3C)cc2)cc1OCCN(C)C,–,–,–,1.16,0.44,0.00118,–,0.264
O=c1ccc2ccc(OCCCCN3CCN(c4cccc5sccc45)CC3)cc2[nH]1 [BREXPIPRAZOLE],0.0764,0.0579,0.308,0.178,0.212,0.0426,0.0104,0.0605
COC(=O)C1=C(C)NC(C)=C(C(=O)OCCCN2CCC(c3ccccc3)(c3ccccc3)CC2)[C@H]1c1cccc([N+](=O)[O-])c1 [NIGULDIPINE],–,–,0.878,0.431,–,0.366,0.425,1.85
C[C@H](Cc1cc2c(c(C(N)=O)c1)N(CCCO)CC2)NCCOc1ccccc1OCC(F)(F)F [SILODOSIN],0.0473,0.196,–,–,0.683,0.373,0.0716,–
CCCCCNC(=N)N/N=C/c1c[nH]c2ccc(OC)cc12 [TEGASEROD MALEATE],1.64,2.61,0.566,0.201,–,–,0.426,0.142
Clc1cccc(COc2cncc(N3CCNCC3)n2)c1,–,–,–,–,–,1.66,0.284,0.00945
CCc1nn(CCCN2CCN(c3cccc(Cl)c3)CC2)c(=O)n1CCOc1ccccc1 [NEFAZODONE HYDROCHLORIDE],0.445,0.572,1.11,1.09,–,0.262,0.38,–
